Data set [1] has as its system Madin-Darby canine kidney (MDCK) cells.
The test system of data set [2] is PR8 H1N1 infected MDCK cells. It is filed as cell-based.

In the case of `O=C(N/N=C\c1cccc(Cl)c1Cl)c1ccc(O)c(O)c1` [compound 6], in data set [1], the “cytotoxicity (in words)” value is on record as “cytotoxic”.
In the case of `Cc1ccccc1/C=N\NC(=O)c1ccc(O)c(O)c1` [compound 7], in data set [1], the “cytotoxicity (in words)” value is on record as “lacking cytotoxicity”. In data set [2], the “antiviral activity (in words)” value is “lacking cytotoxicity and antiviral activity”.
Regarding `COc1ccccc1N1CCN(/N=C/c2ccc(O)c(O)c2)CC1` [compound 8], the “cytotoxicity (in words)” value in data set [1] is given as “cytotoxic”.
In the case of `C/C(=N/NC(=O)c1ccc(O)c(O)c1)c1ccc(C)cc1` [compound 9], the “cytotoxicity (in words)” value in data set [1] is “lacks antiviral activity and cytotoxicity”. Moreover, the “antiviral activity (in words)” value in data set [2] was “lacks antiviral activity”.
With `O=C1CC2(CCCCC2)Oc2c1ccc(O)c2O` [compound 11], the “cytotoxicity (in words)” value in data set [1] is on record as “lack cytotoxicity”. Besides, in data set [2], the “antiviral activity (in words)” value is “lack cytotoxicity and antiviral activity”.
With `CC(=O)N1CCC2(CC1)CC(=O)c1ccc(O)c(O)c1O2` [compound 12], the “cytotoxicity (in words)” value in data set [1] is listed as “lack cytotoxicity”. For the same molecule, the “antiviral activity (in words)” value in data set [2] is “lack cytotoxicity and antiviral activity”.
On to `O=C(Cc1ccccc1Cl)c1ccc(O)c(O)c1O` [compound 14], for which, in data set [1], the “cytotoxicity (in words)” value is recorded as “neither cytotoxic”. The “antiviral activity (in words)” value in data set [2] is recorded as “neither cytotoxic nor active against virally infected cells”.

The values are drawn from PMC3904387 (ACS medicinal chemistry letters, 2013).
